Measurements as given in patent US20230002324A1, “NAPHTHOQUINONE DERIVATIVES FOR TREATMENT OF OXIDATIVE STRESS DISORDERS” (PTC THERAPEUTICS, INC., priority 2019, published 2023).
Read-outs that look alike come from different tables or passages of the source.

What was measured:
Assay type in all cases: cell-based
[1] = tested on: normal human fibroblasts (NHF, GM21811); experiment: NHF GM21811 RSL3 challenge cell survival (rescue) assay; details: Fibroblast, 48 h, read-out: NHF GM21811 RSL3 Survival EC50
How it was run: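 Q7 (33° C.) or NHF (37° C.) cells, 3,000/well, attached 5 h, then test compounds at varying final concentrations followed within 15 min by RSL3 (2 micromolar final); 0.3% DMSO. Assay medium identical to growth medium.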

[2] = tested on: Q7 cells (ST HDH Q7/7; immortalized mouse striatal cells); experiment: Q7 RSL3 challenge cell survival (rescue) assay; details: 18 h, read-out: Q7 RSL3 Survival EC50
Excerpt: In neuronal cells excess extracellular glutamate inhibits the cystine/glutamate antiporter leading to intracellular cysteine depletion, GSH depletion, reactive oxygen species (ROS) production and cell death, a phenomenon termed oxidative glutamate toxicity, oxytosis, or ferroptosis. […] Q7 cells (ST HDH Q7/7; immortalized mouse striatal cells) challenged with cystine-free media or the selective, irreversible GPX4 inhibitor, methyl (1S,3R)-2-(2-chloroacetyl)-1-(4-(methoxycarbonyl)phenyl)-2,3,4,9-tetrahydro-1H-pyrido[3,4-b]indole-3-carboxylate (hereafter referred to as RSL3), recapitulate this phenotype, as do normal human fibroblasts (NHF) challenged with RSL3. An initial screen was performed to identify compounds effective in rescuing Q7 and/or NHF cells from death resulting from cystine deprivation or RSL3 challenge. This method is further described in Yonezawa et al., J. Neurochem 67, 566-573 (1996), Li et al., J Neurosci., 23, 5816-5826 (2003), Yang and Stockwell, Chem Biol., 15: 234-45 (2008), and Yang et al., Cell 156, 317-331 (2014). See also Hinman A, Holst C R, Latham J C, et al. Vitamin E hydroquinone is an endogenous regulator of ferroptosis via redox control of 15-lipoxygenase. PLoS One. 2018; 13(8):e0201369. Published 2018 Aug. 15. doi:10.1371/journal.pone.0201369; and Kahn-Kirby A H, Amagata A, Maeder C I, et al. Targeting ferroptosis: A novel therapeutic strategy for the treatment of mitochondrial disease-related epilepsy. PLoS One. 2019; 14(3):e0214250. Published 2019 Mar. 28. doi:10.1371/journal.pone.0214250.
DMEM (Catalog no. 11995-040), DMEM without Cystine (Catalog no. 21013-024), DMEM without Glucose (Catalog A1443001), PBS (Phosphate buffered saline), Penicillin-streptomycin mix, L-Glutamine, Glucose, Phenol Red, and Pyruvate were purchased from ThermoFisher Scientific (Gibco). Fetal Bovine Serum was obtained from Mediatech, Inc., or Sigma Aldrich. Mouse striatum derived ST HDH Q7/7 (Q7) and normal human skin fibroblast (NHF, product number GM21811) cells were obtained from the Coriell Institute. Methionine and Vitamin K2 were purchased from Sigma Aldrich. RSL3 was synthesized as previously described (see e.g. US Patent Publication US2010/0081654). Cell Titer Glo 2.0 was purchased from Promega. Q7 cell culture medium (Q7 growth medium) was made by combining 50 mL Fetal Bovine Serum, 100 U/mL penicillin, and 100 microgram/mL streptomycin; DMEM was added to make the volume up to 500 mL. Assay medium for the Cystine Deprivation assay was prepared by combining 50 mL Fetal Bovine Serum, 100 U/mL penicillin, 100 microgram/mL streptomycin, 4 mM L-Glutamine, 1 mM Pyruvate and 30 mg/L Methionine; DMEM without Cystine was added to make the volume up to 500 mL. NHF cell culture medium (NHF growth medium) was made by combining 50 mL Fetal Bovine Serum, 100 U/mL penicillin, 100 microgram/mL streptomycin, 2.8 mL 20% Glucose solution (final concentration 6 mM), L-glutamine (final concentration 2 mM), phenol red (final concentration 15 mg/L); DMEM without Glucose was added to make the volume up to 500 mL. Assay medium for the RSL3 challenge assay was identical to Growth medium. While not in use during the course of the experiments, these solutions were stored at 4° C. The cells were grown in 150-cm^2 tissue culture-treated flasks. Every third or fourth day, the cells were sub-cultured by trypsinization and re-seeded at a cell density of 600,000 (Q7) or 300,000 (NHF) cells per flask.
Q7 or NHF cells were cultured routinely as described herein. For 384-well cell survival assays, cells were seeded in clear bottom, black wall 384-well tissue culture-treated polystyrene plates by re-suspending a cell suspension at a density of 50,000 cells/mL in growth medium, then dispensing 60 microliters of cell suspension per well using either an electronic multichannel pipette or a Multidrop™ Combi Reagent Dispenser (ThermoFisher Scientific), corresponding to 3,000 cells/well. […]

[3] = tested on: Q7 cells (ST HDH Q7/7; immortalized mouse striatal cells); experiment: Q7 Cystine Deprivation cell survival (rescue) assay; details: Q7 cells, cystine-free medium, 18 h, Cell Titer Glo, 50% relative viability vs Vitamin K2 (1 micromolar), read-out: Q7 Cystine Deprivation Survival EC50
How it was run: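 Cells were seeded at 3,000/well and allowed to attach for 5 h at 33 °C. Wells were then washed twice with PBS and switched to cystine-free DMEM containing FBS, 4 mM L-glutamine, 1 mM pyruvate and 30 mg/L methionine to induce ferroptotic death. Compounds were scored for survival rescue.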

[4] = NHF cells, RSL3 2 micromolar, Cell Titer Glo
[5] = Q7 cells, RSL3 2 micromolar, Cell Titer Glo

| SMILES | EC50 [1, 4] | EC50 [2, 5] | EC50 [3] | EC50 [1] | EC50 [2] |
| --- | --- | --- | --- | --- | --- |
| Cc1cc(CC2=C(C3CC3)C(=O)c3ccccc3C2=O)ncc1F [Example 120, 2-cyclopropyl-3-((5-fluoro-4-methylpyridin-2-yl)methyl)naphthalene-1,4-dione] | < 50 nM | < 50 nM | < 50 nM |  |  |
| CC1(CCC2=C(Cc3ccc(C(F)(F)F)cn3)C(=O)c3ccccc3C2=O)COC1 [Example 32, 2-(2-(3-methyloxetan-3-yl)ethyl)-3-((5-(trifluoromethyl)pyridin-2-yl)methyl)naphthalene-1,4-dione] | 50 to 250 nM | < 50 nM | < 50 nM |  |  |
| [2H]C([2H])(C1=C(C)C(=O)c2ccccc2C1=O)c1ccc(C(F)(F)F)cn1 [Example 21, 2-methyl-3-((5-(trifluoromethyl)pyridin-2-yl)methyl-d2)naphthalene-1,4-dione] | < 50 nM | < 50 nM |  |  |  |
| CCCC1=C(Cc2ccc(F)c(C)n2)C(=O)c2ccccc2C1=O [Example 118, 2-((5-fluoro-6-methylpyridin-2-yl)methyl)-3-propylnaphthalene-1,4-dione] | < 50 nM | < 50 nM | < 50 nM |  |  |
| [2H]C([2H])([2H])C1=C(Cc2ccc(C(F)(F)F)c(C#N)n2)C(=O)c2c(F)cc(F)cc2C1=O [Example 72, 6-((6,8-difluoro-3-(methyl-d3)-1,4-dioxo-1,4-dihydronaphthalen-2-yl)methyl)-3-(trifluoromethyl)picolinonitrile] | < 50 nM | < 50 nM |  |  |  |
| CC1=C(Cc2ccc(C(F)(F)F)cn2)C(=O)c2cccc(Cl)c2C1=O [Example 60, 5-chloro-3-methyl-2-[[5-(trifluoromethyl)-2-pyridyl]methyl]naphthalene-1,4-dione] | < 50 nM | < 50 nM |  |  |  |
| CC1=C(Cc2ccc(C(F)(F)F)cn2)C(=O)c2c(F)cccc2C1=O [Example 51, 5-fluoro-2-methyl-3-((5-(trifluoromethyl)pyridin-2-yl)methyl)naphthalene-1,4-dione] | < 50 nM | < 50 nM | < 50 nM |  |  |
| CCCC1=C(Cc2cc(C)c(F)cn2)C(=O)c2ccccc2C1=O [Example 113, 2-((5-fluoro-4-methylpyridin-2-yl)methyl)-3-propylnaphthalene-1,4-dione] | < 50 nM | < 50 nM | < 50 nM |  |  |
| O=C1C(Cc2ccc(F)cn2)=C(C2CC2)C(=O)c2ccccc21 [Example 35, 2-cyclopropyl-3-((5-fluoropyridin-2-yl)methyl)naphthalene-1,4-dione] | < 50 nM | < 50 nM | < 50 nM |  |  |
| CC1=C(Cc2ccc(F)cn2)C(=O)c2ccccc2C1=O [Example 6, 2-((5-fluoropyridin-2-yl)methyl)-3-methylnaphthalene-1,4-dione] | < 50 nM | < 50 nM | < 50 nM |  |  |
| CC1=C(Cc2ccc(C(F)(F)F)c(C#N)n2)C(=O)c2c(F)cc(F)cc2C1=O [Example 75, 6-((6,8-difluoro-3-methyl-1,4-dioxo-1,4-dihydronaphthalen-2-yl)methyl)-3-(trifluoromethyl)picolinonitrile] | < 50 nM | < 50 nM |  |  |  |
| O=C1C(Cc2ccc(F)cn2)=C(C2CC2)C(=O)c2c(F)ccc(F)c21 [Example 87, 2-cyclopropyl-5,8-difluoro-3-((5-fluoropyridin-2-yl)methyl)naphthalene-1,4-dione] | < 50 nM | < 50 nM |  |  |  |
| CC1=C(Cc2ccc(C(F)(F)F)c(C#N)n2)C(=O)c2ccccc2C1=O [Example 77, 6-((3-methyl-1,4-dioxo-1,4-dihydronaphthalen-2-yl)methyl)-3-(trifluoromethyl)picolinonitrile] | < 50 nM | < 50 nM |  |  |  |
| [2H]C([2H])([2H])C1=C(Cc2ccc(C(F)(F)F)c(C#N)n2)C(=O)c2ccc(F)cc2C1=O [Example 73, 6-((6-fluoro-3-(methyl-d3)-1,4-dioxo-1,4-dihydronaphthalen-2-yl)methyl)-3-(trifluoromethyl)picolinonitrile] | < 50 nM | < 50 nM |  |  |  |
| CCCC1=C(Cc2ccc(C(F)(F)F)c(C#N)n2)C(=O)c2ccccc2C1=O [Example 114, 6-((1,4-dioxo-3-propyl-1,4-dihydronaphthalen-2-yl)methyl)-3-(trifluoromethyl)picolinonitrile] |  | < 50 nM | < 50 nM |  |  |
| CC1=C(Cc2ccc(C(F)(F)F)c(C#N)n2)C(=O)c2cc(F)cc(F)c2C1=O [Example 74, 6-((5,7-difluoro-3-methyl-1,4-dioxo-1,4-dihydronaphthalen-2-yl)methyl)-3-(trifluoromethyl)picolinonitrile] | < 50 nM | 50 to 250 nM |  |  |  |
| [2H]C([2H])([2H])C1=C(Cc2ccc(C(F)(F)F)c(C#N)n2)C(=O)c2c(F)ccc(F)c2C1=O [Example 76, 6-((5,8-difluoro-3-(methyl-d3)-1,4-dioxo-1,4-dihydronaphthalen-2-yl)methyl)-3-(trifluoromethyl)picolinonitrile] | < 50 nM | < 50 nM |  |  |  |
| CCCC1=C(Cc2ccc(C(F)(F)F)c(C#N)n2)C(=O)c2cc(F)cc(F)c2C1=O [Example 82, 6-((5,7-difluoro-1,4-dioxo-3-propyl-1,4-dihydronaphthalen-2-yl)methyl)-3-(trifluoromethyl)picolinonitrile] | < 50 nM | < 50 nM |  |  |  |
| [2H]C([2H])([2H])C1=C(Cc2ccc(C(F)(F)F)c(C#N)n2)C(=O)c2cc(F)cc(F)c2C1=O [Example 71, 6-((5,7-difluoro-3-(methyl-d3)-1,4-dioxo-1,4-dihydronaphthalen-2-yl)methyl)-3-(trifluoromethyl)picolinonitrile] | < 50 nM | < 50 nM |  |  |  |
| [2H]C([2H])([2H])C1=C(Cc2ccc(C(F)(F)F)cn2)C(=O)c2ccccc2C1=O [Example 54, 2-(methyl-d3)-3-((5-(trifluoromethyl)pyridin-2-yl)methyl)naphthalene-1,4-dione] |  | < 50 nM | < 50 nM |  |  |
| CCC1=C(Cc2ccc(F)cn2)C(=O)c2c(F)ccc(F)c2C1=O [Example 88, 2-ethyl-5,8-difluoro-3-((5-fluoropyridin-2-yl)methyl)naphthalene-1,4-dione] | < 50 nM | < 50 nM |  |  |  |
| CCC1=C(Cc2ccc(C(F)(F)F)cn2)C(=O)c2cc(F)cc(F)c2C1=O [Example 56, 3-ethyl-5,7-difluoro-2-((5-(trifluoromethyl)pyridin-2-yl)methyl)naphthalene-1,4-dione] |  |  |  | < 50 nM | < 50 nM |
